Test: Determination of the active substance content inside the film (UV-vis in THF, with and without ethanol wash)
Type: physicochemical
Conditions: Ecoflex film of Example 1, washed in 15 ml ethanol, UV-vis intensity ratio at 244 nm and 290 nm
Experimental: For applications for the controlled release of active substance, it is useful to determine the active substance content enclosed in the film more specifically.
For this, 27.3 mg of a film charged with chlorpyrifos and prepared by the procedure described above were dissolved in 15 ml of tetrahydrofuran (THF), which is a good solvent both for the active substance and also for the polymer. 0.5 milliliters of this solution were further diluted to a volume of 20 ml with THF; a UV-vis spectrum was recorded for the dilute solution.
In a comparison experiment, the film was firstly washed in 15 ml of ethanol and dried before being analyzed as described above in a solution of THF by means of UV-vis spectroscopy.
Reference spectra were measured a series of THF solutions which, as well as 33.5 mg/l of Ecoflex® comprising Ecoflex® pellets, also comprised chlorpyrifos in concentrations of from 0 to 24 mg/l. A suitable comparison parameter which clearly reflects the chlorpyrifos content is the intensity ratio I2/I1 of characteristic peaks in the UV-vis spectrum at the wavelengths 244 nm and 290 nm.

Structure (SMILES): CCOP(=S)(OCC)Oc1nc(Cl)c(Cl)cc1Cl [chlorpyrifos]
- chlorpyrifos used in the film preparation that remains in the film after washing with ethanol (enclosed fraction, released in a delayed manner) (dried, dissolved in THF): 24%
- active substance washed away with ethanol (fraction on the film surface, directly available): 76%

— patent publication US20090270259A1, “Novel Agrochemical Formulations” (priority 2005, published 2009)
